Laboratory results from patent publication US10251909B2 (Board of Regents, the University of Texas System, priority 2007, dated 2019).
Like-named read-outs stand apart in the source and are kept apart here.

Legend:
[1] = Odvina, 42 mEq K qd; cited from earlier work
[2] = cited from earlier work
[3] = cited from earlier work; remark: listed apart in the source
[4] = cited from earlier work; remark: listed apart in the source
[5] = Blood pressure during 5 months of KMgCitrate or potassium chloride with hydrochlorothiazide, 21 normal subjects (Example 1); format: in vivo, Human; details: for fall in diastolic blood pressure (supine) / fall in systolic blood pressure (supine): 42 mEq K per day with hydrochlorothiazide 50 mg/day, monthly for 5 months versus baseline, normal subjects; for effect on blood pressure: normal subjects given hydrochlorothiazide concurrently for 5 months, as early as one month and as long as 5 months
Excerpt: FIG. 2 graphically illustrates the effect of KMgCitrate (K4MgCit2) on blood pressure in 21 normal subjects. Changes in systolic and diastolic blood pressures from baseline (before treatment) occurring during 5 months of treatment with potassium chloride (KCl) or KMgCitrate with hydrochlorothiazide are shown individually. * p<0.05 from time zero, ** p<0.01.
In the recently published study by Odvina et al. (Am J Therap 13: 101-108, 2006) that examined the value of KMgCitrate in the prevention of thiazide-induced hypomagnesemia, the unpublished data on blood pressure were extracted. Twenty-one normal subjects participated in the trial. All were started on hydrochorothiazide 50 mg/day. Ten subjects took simultaneously KMgCitrate at a dose of 42 mEq K and […] per day, while 11 subjects received potassium chloride (42 mEq/day). Supine blood pressures were taken before and each month for 5 months. FIG. 3 compares the systolic and diastolic blood pressures between the two groups.

[6] = Tolerability of KMgCitrate; format: in vivo; details: usual dosage about 40 mEq potassium, 20 mEq magnesium, 60 mEq citrate
[7] = cited from earlier work; remark: listed apart in the source
[8] = Insulin responsiveness by hyperinsulinemic euglycemic pump procedure, two subjects with uric acid stones (Example 2); format: in vivo, Human; details: 49 mEq K, 24.5 mEq Mg per day for 4 weeks
Procedure: In two subjects with uric acid stones, insulin responsiveness was determined before and after KMgCitrate treatment (49 mEq K, 24.5 mEq Mg per day for 4 weeks) by a hyperinsulinemic euglycemic pump procedure. During intravenous infusion of insulin, glucose was infused at a rate sufficient to maintain a constant glucose concentration. Insulin responsiveness was determined from the glucose disposal rate.

[9] = in vivo; cited from earlier work
[10] = thirty subjects with hypomagnesemia on thiazide alone; cited from earlier work
[11] = both groups, before potassium supplementation; cited from earlier work
[12] = 49 mEq K, 24.5 mEq Mg/day for 3 weeks while continuing hydrochlorothiazide 50 mg/day
[13] = during therapy versus control phase, constant metabolic diet
[14] = during therapy, constant metabolic diet

For `O=C([O-])CC(O)(CC(=O)[O-])C(=O)[O-].O=C([O-])CC(O)(CC(=O)[O-])C(=O)[O-].[K+].[K+].[K+].[K+].[Mg+2]` [KMgCitrate, tetrapotassium monomagnesium dicitrate], the “Increment in Urinary Magnesium” value [1] is given as 57 to 63 mg/day, the “Increment in Urinary Potassium” value [1] is given as 30–50 mEq/day and the serum potassium concentration [2, 12] is given as “increased significantly”. For the same molecule, the “serum potassium determinations reaching normal limits” value [2, 12] was 81.7%, the “Increment in Urinary Magnesium” value ([2]; Ruml, 49 mEq K qd) was 38 mg/day and the “Increment in Urinary Potassium” value ([2]; Ruml, 49 mEq K qd) was 33 mEq/day. For the same molecule, the “Increment in Urinary Magnesium” value ([3]; Pak, 49 mEq K qd) was 44 mg/day, the “Increment in Urinary Potassium” value ([3]; Pak, 49 mEq K qd) was 51 mEq/day and the alkali load ([3]; at the same dose of potassium, versus potassium citrate) was “greater alkali load than potassium citrate”. For the same molecule, the “urinary pH” value [3, 13] was “rose from the control phase”, the urinary potassium [3, 13] was “rose from the control phase” and the “inhibitor activity of brushite” value [3, 14] was “increased”. For the same molecule, the “inhibitor activity of calcium oxalate” value [3, 14] was “increased”, the “urinary saturation of calcium oxalate (activity product)” value [3, 14] was “reduced” and the “urinary saturation of uric acid (content of undissociated uric acid)” value [3, 14] was “reduced”. The “peak excretion rate of urinary potassium” value ([4]; single oral load (KMgCitrate 49 mEq potassium, 24.5 mEq magnesium, 73.5 mEq citrate), timed urine 24 hours, 15 normal volunteers) was “comparable to that of potassium citrate and potassium chloride”, the “peak excretion rate and peak time of urinary magnesium” value ([4]; single oral load, 24.5-25 mEq magnesium, 15 normal volunteers) was “comparable between KMgCitrate and magnesium citrate” and the “cumulative increment in urinary magnesium” value ([4]; single oral load, 24.5-25 mEq magnesium, potassium citrate as control) was “equivalent between KMgCitrate and magnesium citrate”. The “peak time (time to reach peak excretion rate) of urinary potassium” value ([4]; single oral load, 49-50 mEq potassium, 15 normal volunteers) was “about 4 hours”, the “fall in diastolic blood pressure (supine)” value [5] was “significant only in the KMgCitrate group” and the “fall in systolic blood pressure (supine)” value [5] was “significant only in the KMgCitrate group”. For the same molecule, the “effect on blood pressure” value [5] was “significant reduction”, the “tolerability / side effect profile” value [6] was “well tolerated, with a low side effect profile” and the “relative risk of treatment failure compared with placebo” value ([7]; 42 mEq K, 21 mEq Mg/day for up to 3 years) was 0.16 (95% confidence interval of 0.05-0.46). The “patients in whom new calculi formed” value ([7]; 42 mEq K, 21 mEq Mg/day for up to 3 years, placebo 63.6%) was 12.6%, the stone formation rate ([7]; randomized trial, patients with calcium oxalate nephrolithiasis) was “dramatically reduced” and the “glucose disposal rate after treatment, second patient” value ([8]; 2.2 mg/m^2/min before treatment) was 2.8 mg/m^2/min. For the same molecule, the “glucose disposal rate after treatment, first patient” value ([8]; 3.2 mg/m^2/min before treatment) was 4.3 mg/m^2/min and the insulin responsiveness ([8]; hyperinsulinemic euglycemic pump) was “improved insulin responsiveness”.

In the case of `O=C([O-])CC(O)(CC(=O)[O-])C(=O)[O-].[K+].[K+].[K+]` [Potassium citrate, potassium citrate, reference compound], the urinary citrate [3, 13] is listed as “did not raise pH or citrate as much”, the “urinary pH” value [3, 13] is listed as “did not raise pH or citrate as much” and the urinary magnesium excretion [3, 14] is listed as “did not augment”.

With `[Cl-].[K+]` [potassium chloride, reference compound] the “fall in diastolic blood pressure (supine)” value [5] was “trend for systolic and diastolic blood pressures to decrease”, the “fall in systolic blood pressure (supine)” value [5] was “trend for systolic and diastolic blood pressures to decrease” and the “effect on blood pressure” value [5] was “no statistically significant effect”. For the same molecule, the urinary calcium [9] was “has no effect”.

In the case of `NS(=O)(=O)c1cc2c(cc1Cl)NCNS2(=O)=O` [thiazide, hydrochlorothiazide], the “serum potassium concentration on thiazide alone” value ([2]; hydrochlorothiazide 50 mg/day for 3 weeks, normal subjects) is listed as “decreased significantly to below the normal range in most subjects”, the “serum magnesium concentration during thiazide alone versus before treatment” value [10] is listed as “significantly lower” and the “serum potassium concentration on thiazide alone” value [11] is listed as “decreased significantly”.
